Test results from US20030125287A1, “Antisense oligonucleotides and methods to induce tumor cell death” (Hybridon, Inc., priority 2001, published 2003).
“Also recorded” adds a separate entry of the source. Oligonucleotides are written 5' to 3', each unit as a sugar letter and its base; * is a phosphorothioate linkage, no mark a phosphodiester; rarer units and linkages stand in square brackets, end groups in braces. Plain capitals give the bases only. d = 2'-deoxy (DNA)

Experiments:
[1] = system: caspase-3; assay: Caspase-3 activity assay in MSN cells; type: cell-based, human
[2] = system: survivin; assay: Western blot of survivin protein in MSN cells treated with cell cycle checkpoint blockers; type: cell-based, human; conditions: for survivin expression / survivin protein abundance after cell cycle blocker: result in words, cell line not given; for fold increase of survivin protein relative to DMSO or EtOH: MSN cells, vinblastine 250 nM, nocadozole 10 μM, taxotere 1 μM
Procedure: Total protein was isolated from MSN cells either untreated or treated with vinblastine (250 nM), nocadozole (10 μM), or taxotere (1 μM). DMSO and ethanol (EtOH) were added as carriers. Each lane had 75 μg of total protein. The blots were cut at 32.9 kD, and the bottom blots were incubated with a survivin polyclonal antibody (1:500), while the top blot was incubated with a β-tubulin mAb (1:1000). In each of the treatments, the fold increase of survivin protein relative to DMSO or EtOH was vinblastine, 1.9; nocadozole, 2.6; taxotere, 1.7.
(§1) To block cells in G2/Ml MSN cells or TC620 cells were treated with 10 μM nocodazole, 1 μM taxotere, or 250 nM vinblastine for 16 hours, at which time total protein homogenates were isolated and proteins were examined following sodium dodecyl sulfate-polyacrylamide gel electrophoresis (SDS-PAGE) and immunoblotting.
(§2) Ten micrograms of the fusion protein was incubated with the survivin antibody (1:500) at 4° C. for 2 hours to overnight prior to immunoblotting. […] Blots were cut at 32.9 kD, and the bottom part of the blots were incubated with the survivin antibody overnight at 4° C. and visualized by enhanced chemiluminescence (Enhanced Chemiluminescence, Amersham, Arlington Heights, Ill.) as previously described (Sharma et al. Cell. Motil. Cytoskeleton 27:234-247).

[3] = system: survivin; assay: Western blot of survivin protein in nocodazole-treated TC620 cells; type: cell-based, human; conditions: nocodazole 10 μM, 24 h
Procedure: The Western blot as represented in FIG. 2B was prepared by isolating total protein from nocadozole-treated (10 μM, 24 h) and untreated TC620 cells, MSN cells, and Jurkat cells. Each lane had 75 μg of total protein.
as §1

[4] = system: MSN cells; assay: Flow cytometry of MSN cells treated with G2/M blockers; type: cell-based, human
Procedure: Next, the regulation of survivin expression at G2/M cell cycle checkpoints was evaluated. First, survivin expression was increased following treatment with the G2/M checkpoint blockers, vinblastine, nocodazole, and taxotere.

[5] = system: caspase-3; assay: Caspase-3 activity assay in MSN cells; type: cell-based, human; remark: listed apart in the source
Procedure: MSN cells were treated with lipofectin, 400 nM survivin antisense oligonucleotide 903, 904, or mismatched oligonucleotide 1132, for a 48 hour period. Cell pellets were washed twice in cold PBS and re-suspended in ice-cold hypotonic cell lysis buffer (25 mM HEPES, pH 7.5, 5 mM MgCl2, 5 mM EDTA, 5 mM DTT, 2 mM PMSF, 10 μg/ml pepstatin A, 10 μg/ml leupeptin). Re-suspended pellets were incubated on ice for 20 min, followed by brief sonication for two seconds. Lysates were centrifuged at 14,000 rpm for 20 minutes at 4° C. The supernatant was retained and the protein concentration analyzed by the Bio-Rad protein assay described above.
Supernatants were assayed in triplicate, with and without the caspase-3 inhibitor, Ac-DEVD-CHO, using black opaque, 96 well, flat bottom plates (Greiner Laboratories, USA Scientific Inc., Orlando, Fla.). 50-100 μg of the supernatant was incubated in caspase-3 assay buffer (100 mM HEPES, pH 7.5, 10% sucrose, 0.1% CHAPS and 10 mM DTT) with either 2 μl of DMSO or 2 μl of 2.5 mM Ac-DEVD-CHO (Pharmingen, San Diego, Calif.) so that the final concentration of the inhibitor was 50 μM in a final volume of 100 μl. It was then incubated at 30° C. for 30 minutes. Subsequently, 2 μl of the caspase-3 substrate 2.5 mM Ac-DEVD-AMC (Pharmingen, San Diego, Calif.) (final concentration 50 μM)) was added to each well. Plates were incubated at 30° ° C. for 60 minutes in the dark.
Fluorescence of the reaction was measured using a SPECTRAmax GEMINI spectrofluorometer using SOFTmax® PRO software (Molecular Devices, Sunnyvale, Calif.) at an excitation wavelength of 355 nm and an emission wavelength of 460 nm with a cutoff filter of 455 nm. The data is presented as the ratio of the mean relative fluorescence units/mg protein±SD.

[6] = system: survivin; assay: Western blot of survivin protein in antisense oligonucleotide-treated MSN cells; type: cell-based, human
Procedure: Six survivin (900-906) antisense oligonucleotides were administered at 400 nM to MSN cells in the presence of lipofectin for 48 hours. Each lane has 100 μg of protein. The blots were cut at 32.9 kD and the bottom incubated with the survivin polyclonal antibody (1:500), while the top was incubated with β-tubulin.
Since survivin antisense oligonucleotide 903 decreased survivin protein levels by 76%, the dose dependency of 903 on survivin protein levels was further studied. As expected, mismatched oligonucleotides had no effect on the relative abundance of survivin. […] In the presence of lipofectin, survivin antisense oligonucleotide 903 was administered to MSN cells for 48 hours at 50 nM to 200 nM. Total protein (100 μg) was loaded/lane.
Survivin antisense oligonucleotide 904 decreased survivin protein levels by 46% and 60% while survivin levels were unchanged in cells incubated with the mismatched oligonucleotide 1132. MSN cells were treated with lipofectin, survivin antisense oligonucleotide 904 or 908 at 400 nM and 600 nM, or mismatched oligonucleotide 1132 at 400 nM concentrations. Total protein (100 μg) was separated by SDS polyacrylamide gel electrophoresis and transferred to a nitrocellulose support. The blots were cut at 32.9 kD and the bottom blots incubated with the survivin polyclonal antibody (1:500), while the top blots were incubated with tubulin.
The antisense oligonucleotides were synthesized on solid support with an automated DNA synthesizer using β-cyanoethylphosphoramidite chemistry. In order to prevent rapid degradation of the antisense oligonucleotides by cellular nucleases, oxidation was carried out with Becauge sulfurizing agent to obtain phosphorothioate backbone modified oligonucleotides. After their synthesis, the oligonucleotides were released from the solid support, deprotected, purified by reverse-phase HPLC, desalted, filtered and lyophilized. The purity and sequence integrity of oligonucleotides was ascertained by capillary gel electrophoresis and MALDI-TOF mass spectral analysis and the concentrations measured at […]. Cells were grown in 100 mm dishes and oligonucleotide treatment was performed on subconfluent cultures in the presence of Lipofectin (GIBCO) according to the manufacturer. Forty-eight hours following treatment, total protein homogenates were isolated.
as §2

[7] = system: XIAP; conditions: MSN cells; 400 nM; 48 hours (FIG. 10A)
Procedure: MSN cells were treated with lipofectin or 400 nM survivin antisense oligonucleotides 900, 901, 903, 904, 905 and 906. Total protein was isolated 48 hours after treatment, and 100 μg of protein was loaded per lane. The blot was incubated with a monoclonal antibody against XIAP (1:1000; IgG1). Visualization was by enhanced chemiluminescence (ECL). […] The experiment was performed twice.
Total protein homogenates were prepared according to a previously described procedure (Albala et al. (1995) J. Neurochem. 64:2480-2490). Protein content was measured using the Bio-Rad detection system (Bio-Rad Laboratories, Hercules, Calif.). Equal amounts of protein were analyzed by SDS-PAGE on 10% gels (Laemmli (1970) Nature 227:680-685). The resolved polypeptides were electrophoretically transferred to nitrocellulose (Towbin et al. (1979) Proc. Natl. Acad. Sci. USA 76:4350-4354).
Survivin polyclonal antibody was purchased from R & D Systems, Inc. (Minneapolis, Minn.). […] A generic β-tubulin monoclonal antibody (TUB 2.1) was purchased from SIGMA (St. Louis, Mo.). The XIAP mAb was purchased from StressGen Biotechnologies Corp. (Victoria, Canada). The poly-ADP ribosyl polymerase (PARP) mAb was purchased from PharMingen/Transduction Laboratories (San Diego, Calif.).

[8] = system: PARP; assay: PARP cleavage immunoblot in MSN cells; type: cell-based, human
Procedure: To determine whether MSN cell death by survivin antisense oligonucleotides was mediated by caspase-3 activation, studies were conducted to examine whether PARP was cleaved following survivin antisense treatment. […] Since no PARP cleavage was detected, further tests were conducted to determine whether survivin antisense-treated cells have any active caspase-3.

[9] = 400 nM, lipofectin, 48 hours (FIG. 3A)

CN[C@@H]1C[C@H]2O[C@@](C)([C@@H]1OC)n1c3ccccc3c3c4c(c5c6ccccc6n2c5c31)C(=O)NC4 [Staurosporine]
caspase-3 activity, Relative units/mg protein +/− SD ([1]; 1 μM, 6 hours, triplicate): 264,281 ± 8130 Relative units/mg protein | fold increase in caspase-3 activity ([1]; staurosporine treatment): over 7 fold

CN1CC[C@H](c2c(O)cc(O)c3c(=O)cc(-c4ccccc4Cl)oc23)[C@H](O)C1 [flavopiridol]
survivin expression / survivin protein abundance after cell cycle blocker [2]: did not alter survivin protein abundance

COC(=O)Nc1nc2ccc(C(=O)c3cccs3)cc2[nH]1 [nocodazole]
fold increase in survivin protein [3]: 1.6 fold | fold increase of survivin protein relative to DMSO or EtOH [2]: 2.6 fold | survivin expression / survivin protein abundance after cell cycle blocker [2]: increased

CC(=O)O[C@@]12CO[C@@H]1C[C@H](O)[C@@]1(C)C(=O)[C@H](O)C3=C(C)[C@@H](OC(=O)[C@H](O)[C@@H](NC(=O)OC(C)(C)C)c4ccccc4)C[C@@](O)([C@@H](OC(=O)c4ccccc4)[C@H]21)C3(C)C [taxotere]
cell cycle phase by flow cytometry [4]: blocked at the G2/M cell cycle phase | fold increase of survivin protein relative to DMSO or EtOH [2]: 1.7 fold | survivin expression / survivin protein abundance after cell cycle blocker [2]: increased

CC[C@]1(O)C[C@@H]2CN(CCc3c([nH]c4ccccc34)[C@@](C(=O)OC)(c3cc4c(cc3OC)N(C)[C@H]3[C@@](O)(C(=O)OC)[C@H](OC(C)=O)[C@]5(CC)C=CCN6CC[C@]43[C@@H]65)C2)C1 [vinblastine]
cell cycle phase by flow cytometry [4]: blocked at the G2/M cell cycle phase | fold increase of survivin protein relative to DMSO or EtOH [2]: 1.9 fold | survivin expression / survivin protein abundance after cell cycle blocker [2]: increased

Ac-DEVD-CHO [reference compound]
effect of caspase-3 inhibitor on caspase-3 activation in the assay ([5]; added to MSN cell supernatants, final concentration 50 μM): eliminated caspase-3 activation

d(CAGTGGATGAAGGCAGCCTC) (antisense dC*dA*dG*dT*dG*dG*dA*dT*dG*dA*dA*dG*dG*dC*dA*dG*dC*dC*dT*dC) [Oligo 901]
percentage of survivin protein over β-tubulin relative to lipofectin [6, 9]: 38.3% | fold change of XIAP protein over β-tubulin relative to lipofectin [7]: 3.9 fold

d(CCCTAGCTCACACTCTCATT) (antisense dC*dC*dC*dT*dA*dG*dC*dT*dC*dA*dC*dA*dC*dT*dC*dT*dC*dA*dT*dT) [Oligo 903, 20-mer phosphorothioate survivin antisense oligonucleotide, complementary to survivin mRNA 4385-4404]
caspase-3 activity ([5]; MSN cells, 400 nM, 48 hours): no significant increase in caspase-3 activity; also recorded: did not activate caspase-3 | caspase-3 activity, Relative units/mg protein +/− SD ([5]; MSN cells, 400 nM, 48 hours, triplicate): 27,850 ± 2311 Relative units/mg protein | percentage of survivin protein over β-tubulin relative to lipofectin ([6]; 50 nM, 48 hours (FIG. 3B)): 83.9% | percentage of survivin protein over β-tubulin relative to lipofectin ([6]; 75 nM, 48 hours (FIG. 3B)): 62.6% | percentage of survivin protein over β-tubulin relative to lipofectin ([6]; 100 nM, 48 hours (FIG. 3B)): 95.6% | percentage of survivin protein over β-tubulin relative to lipofectin ([6]; 200 nM, 48 hours (FIG. 3B)): 48.5% | reduction in survivin ([6]; 200 nM, 48 hours (FIG. 3B)): 51% | decrease in survivin protein levels relative to lipofectin-treated control, normalized to β-tubulin ([6]; 400 nM, 48 hours (FIG. 3A)): 76% | percentage of survivin protein over β-tubulin relative to lipofectin [6, 9]: 24.3% | effect on survivin protein levels ([6]; lipofectin, 48 hours): concentration-dependent decrease in survivin protein levels | fold change of XIAP protein over β-tubulin relative to lipofectin [7]: 5.2 fold | PARP cleavage, words [8]: did not activate caspase-3 or cleave the caspase-3 substrate, PARP

d(GAGCCTTCCTCTTCATGTCC) (antisense dG*dA*dG*dC*dC*dT*dT*dC*dC*dT*dC*dT*dT*dC*dA*dT*dG*dT*dC*dC) [Oligo 905]
fold change of XIAP protein over β-tubulin relative to lipofectin [7]: 7.6 fold

d(GCCAGTTCTTGAATGTAGAG) (antisense dG*dC*dC*dA*dG*dT*dT*dC*dT*dT*dG*dA*dA*dT*dG*dT*dA*dG*dA*dG) [Oligo 900]
percentage of survivin protein over β-tubulin relative to lipofectin [6, 9]: 77.7% | fold change of XIAP protein over β-tubulin relative to lipofectin [7]: 2.3 fold
